# Reference: PubChem BioAssay (NCI)
#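 The compound was tested at five concentrations on cells cultured in 96-well plates, with a 48-hour exposure period. Here, GI50 denotes the concentration required for 50% inhibition of growth. TGI: concentration producing complete growth inhibition.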
# Columns and labels:
# Assay in all cases: NCI-60 cell line screen, 48 h
# A498 renal = test system: A498 renal
# BT-549 breast = test system: BT-549 breast
# IGROV1 ovarian = test system: IGROV1 ovarian
# NCI-H23 lung = test system: NCI-H23 lung
# NCI/ADR-RES ovarian = test system: NCI/ADR-RES ovarian
# SF-295 CNS = test system: SF-295 CNS
# SK-OV-3 ovarian = test system: SK-OV-3 ovarian
# SW-620 colon = test system: SW-620 colon
# U251 CNS = test system: U251 CNS
# UO-31 renal = test system: UO-31 renal
SMILES,TGI (A498 renal) [µM],TGI (BT-549 breast) [µM],TGI (IGROV1 ovarian) [µM],TGI (NCI-H23 lung) [µM],TGI (NCI/ADR-RES ovarian) [µM],TGI (SF-295 CNS) [µM],TGI (SK-OV-3 ovarian) [µM],TGI (SW-620 colon) [µM],TGI (U251 CNS) [µM],TGI (UO-31 renal) [µM],GI50 (A498 renal) [µM],GI50 (BT-549 breast) [µM],GI50 (IGROV1 ovarian) [µM],GI50 (NCI-H23 lung) [µM],GI50 (NCI/ADR-RES ovarian) [µM],GI50 (SF-295 CNS) [µM],GI50 (SK-OV-3 ovarian) [µM],GI50 (SW-620 colon) [µM],GI50 (U251 CNS) [µM],GI50 (UO-31 renal) [µM]
CC(C)Cn1cnc2c(SCc3ccc(Cl)cc3Cl)nc(N)nc21,49.5,> 100,> 100,> 100,> 100,> 100,> 100,> 100,> 100,> 100,,,,,,,,,,
Clc1nc(Cl)c2ncn(CC3(Cn4cnc5c(Cl)nc(Cl)nc54)COC3)c2n1,3.46,1.69,0.405,0.392,0.573,3.1,2.98,0.651,0.331,1.35,1.78,0.501,0.209,0.194,0.257,1.56,1.61,0.257,0.181,0.623
N=C1C(c2nc3ccccc3s2)=C(O)CN1c1ccc(F)c(Cl)c1,73.2,> 100,58.3,> 100,80.6,> 100,> 100,> 100,23.2,35.8,31.2,30.2,19.4,34.8,26.9,18.8,25.3,58.7,5.76,14.7
O=C(Nc1ccc([As](=O)(O)O)cc1)Nc1cccc(Cl)c1Cl,> 100,> 100,> 100,> 100,> 100,> 100,> 100,> 100,> 100,> 100,,,,,,,,,,
CC(=O)NC1C(OC[C@@H](CC(=O)N[C@@H](CC(=O)O)CC(=O)N[C@H](CC(=O)N[C@@H](CCCN)CC(=O)N[C@@H](CCCN)CC(=O)N[C@H](CC(N)=O)C(C)C)C(C)C)NC(=O)C[C@@H](N)C(C)C)OC(CO)C(O)C1O (stereo not given in full),> 100,> 100,> 100,> 100,> 100,> 100,> 100,> 100,> 100,> 100,> 100,> 100,> 100,> 100,> 100,> 100,> 100,> 100,> 100,> 100
C=C1C(=O)O[C@H]2[C@H]1CC/C(CNC(=O)/C=C/c1cc(OC)c(OC)c(OC)c1)=C\CC[C@@]1(C)O[C@@H]21,15.7,3.95,13.9,3.58,> 100,18.2,33.3,2.49,16.4,4.08,4.1,1.51,3.22,1.58,24.4,4.61,17.2,0.615,4.23,1.55
CCCCON(OC(=O)c1ccc2ccccc2c1)C(=O)c1ccccc1,> 100,> 100,> 100,> 100,> 100,> 100,> 100,> 100,> 100,> 100,> 100,92.3,44.1,90.2,> 100,> 100,> 100,36.3,> 100,53.1
